These results are taken from patent publication US6096725A, “Methods of using αGal oligosaccharides as immune system targeting agents” (Neose Technologies, Inc., priority 1997, dated 2000).

“Also recorded” adds a separate entry of the source. Where two headings read alike, the source gives them in different places.

The subject of data set [1] is anti-αGal IgG and IgM antibodies. Description: In vitro mouse laminin ELISA: soluble oligosaccharides as neutralizers of anti-αGal antibodies. Conditions: serum pre-incubated with oligosaccharide 1 hour 37° C.; result in words. The data set is classed as binding. From the text:
In vitro laminin ELISA evaluation of αGal oligosaccharides as neutralizers of anti-αGal antibodies. Mouse laminin is a basement membrane glycoprotein that expresses 50-70 oligosaccharides terminating in Galα1-3Gal, i.e., the αGal motif (Arumugham et al., 1986, Biochem. Biophys. Aeta 883:112). In this assay, immobilization of mouse laminin on microtiter plates serves as a capture ligand for anti-αGal antibodies. […] The example provides a method by which to determine the ability of αGal oligosaccharides and pharmaceutically acceptable derivative of the invention to bind to anti-αGal antibodies and to thereby remove these antibodies from the serum, neutralize anti-αGal antibodies, and/or target anti-αGal directed complement-mediated lytic attack to specific tissue or cell types. The example also provides a method by which the effectiveness of the methods of the invention can be evaluated and dosages determined.
Sera were mixed with serial dilutions of αGal oligosaccharides (αGal-CHO) at 37° C. for 1 hour, then added to mouse laminin-coated microtiter plates and incubated for 1 hour to allow binding. The microtiter plates were coated with 20 μg/mL mouse laminin in 50 mM NaHCO3 buffer, pH 9.5 at 4° C. overnight, blocked with SuperBlock solution (Pierce) for 2 hours, and then washed 3 times with SuperBlock solution. After washing excess serum away, bound IgG and IgM was measured by adding goat anti-human IgG (or IgM) conjugated to alkaline phosphatase and incubating for 1 hour, washing, and adding substrate (pNPP).

Data set [2] has as its system anti-αGal antibodies (serum IgG and IgM). Description: In vitro immobilized αGal pentasaccharide glycinamide ELISA. The data set is classed as binding. The note with it: baboon serum pre-incubated with oligosaccharide 1 hour 37° C.; result in words. From the text: In vitro immobilized αGal oligosaccharide ELISA analysis evaluation of anti-αGal antibody titer and of αGal oligosaccharides as neutralizers of anti-αGal antibodies. This example provides an assay that may be applied to determine the ability of αGal oligosaccharides and pharmaceutically acceptable derivative of the invention to bind to anti-αGal antibodies and to thereby remove these antibodies from the serum or plasma, neutralize anti-αGal antibodies, and/or target complement-mediated lytic attack to specific tissue or cell types. Such an ELISA is additionally useful in clinical monitoring of anti-αGal antibodies in blood of patients in advance of, and following xenotransplantation of organs from animals that express the αGal epitope.
The derivative of the αGal pentasaccharide (αGal pentasaccharide glycinamide) was synthesized and immobilized on N-oxysuccinimide microtiter plates (Costar) (0.5 mg/ml αGal pentasaccharide glycinamide) in bicarbonate buffer, pH 9.0, overnight at 4° C.; the plate was blocked first for 1 hour with 1M ethanolamine in the same buffer and secondly with phosphate buffered saline, pH 7.4, containing 1% bovine serum albumin and 0.05% Tween 20 and 0.02% NaN3 or PBNT. PBNT was used for all three subsequent plate washes and as a diluent for the antibodies. […] The optical density at 405 nm was recorded.
On the technique in general: An ELISA detects its analyte on a solid surface through an enzyme-linked reagent.

The test system of data set [3] is hyperacute rejection. Conditions: cited from earlier work.
Data set [4] deals with anti-αGal antibody. Conditions: Neethling et al., 1996; cited from earlier work.
Data set [5] has as its system pig kidney cells, PK-15. Description: In vitro cytotoxicity of human sera on PK-15 monolayers. It is filed as cell-based. Conditions: sera of individual humans; result in words. Here is the method: Sera were incubated with serial dilutions of αGal oligosaccharides at 37° C. for 1 hour, then added to αGal-expressing monolayers (pig kidney cells, PK-15) in Terasaki plates for 1 hour at 37° C. Cytotoxicity was mediated by either endogenous complement, or the sera were de-complemented (heat inactivated for 30 minutes at 56° C.) and exogenous (rabbit) complement was added. After washing away excess serum, the viable dye mix "live-dead" (calcein AM/ethidium homodimer (Molecular Probes Inc., Eugene Oreg.)) was added and monolayers were scored for viability by fluorescence microscopy.

Data set [6] in a line: Pharmacokinetics after 15 minute intravenous bolus in baboons. It is filed as in vivo, baboon. The note with it: for clearance / half-life / Vd: baboon, plasma, iv, 500 umol/kg, 0.5 mMol/Kg 15 minute i.v. bolus; for Vd: read-out: Volume of Distribution. Here is the method:
The pharmacokinetics of the αGal trisaccharide compositions and the αGal pentasaccharide compositions were determined by delivering to one baboon by 15 minute intravenous bolus, 0.5 mMol/Kg of one oligosaccharide and 48 hours later, delivering 0.5 mmol/Kg of the second oligosaccharide, and for a second baboon, delivering the oligosaccharides according to the same procedure, but in the reverse order.
(§1) Three Baboons were outfitted with indwelling venous and arterial catheters to the femoral vessels, and held in place with the aid of a jacket. Oligosaccharides were administered through the catheter in a 15 minute continuous infusion.
The clearance is used to calculate the infusion rate needed to maintain a desired drug concentration. The half-life describes how quickly concentrations diminish with time. Mathematical formulations known in the art were applied to estimate the pharmacokinetic parameters of the αGal trisaccharide and αGal pentasaccharide. […] Compared to other drugs, the volumes of distribution of these oligosaccharides are low, less than the extravascular water volume (<400 mL/kg). The clearance is typical of compounds eliminated by GFR (glomerular filtration rate).

In data set [7] the test system is anti-αGal antibody. Description: In vivo blood serum analysis: serum anti-αGal antibody neutralizing capacity in baboons. Further details: species or system baboon. The note with it: monovalent oligosaccharide.
Description: Pharmokinetics of αGal trisaccharides and αGal pentasaccharides in baboons. This example presents a study of the pharmokinetic profile and serum anti-αGal antibody neutralizing capacity in baboons of αGal trisaccharides and αGal pentasaccharides and previews the compounds' suitability for use in the prevention of hyperacute rejection of porcine organs xenotransplanted into baboons.
as §1

[8] abbreviates: to attain 0.5 mM steady state serum concentration.
The mark [9] stands for this setting: to attain 1.0 mM steady state serum concentration.
Setting [10] is: to attain 2.0 mM steady state serum concentration.

Regarding `OC[C@H]1O[C@@H](O[C@@H]2[C@H](O)[C@@H](O)C(O)O[C@@H]2CO)[C@H](O)[C@@H](O)[C@H]1O` (some centres unmarked) [Galβ1-4Gal], in data set [1], the “Inhibition of anti-αGal IgG and IgM antibody binding to immobilized mouse laminin” value (shortened to “Inhibition … to immobilized mouse laminin”) was “do not inhibit antibody binding”. Further, the “Inhibition of serum IgG and IgM binding to immobilized αGal pentasaccharide glycinamide” value in data set [2] is given as “minimally”.
Take `CC(=O)N[C@H]1[C@H](O[C@H]2[C@@H](O)[C@@H](CO)O[C@@H](O[C@H]3[C@H](O)[C@@H](O)C(O)O[C@@H]3CO)[C@@H]2O)O[C@H](CO)[C@@H](O[C@@H]2O[C@H](CO)[C@H](O)[C@H](O)[C@H]2O)[C@@H]1O` (some centres unmarked) [Galβ1-4GlcNAcβ1-3 Galβ1-4Glc]: in data set [1], the “Inhibition … to immobilized mouse laminin” value was “do not inhibit antibody binding”.
As for `OC[C@H]1O[C@@H](O[C@H]2[C@H](O)[C@@H](O)C(O)O[C@@H]2CO)[C@H](O)[C@@H](O)[C@H]1O` (some centres unmarked) [lactose, galactoseβ1-4glucose], the “Inhibition … to immobilized mouse laminin” value in data set [1] is “do not inhibit antibody binding”.
Take `OC[C@H]1O[C@H](OC[C@H]2OC(O)[C@H](O)[C@@H](O)[C@@H]2O)[C@H](O)[C@@H](O)[C@H]1O` (some centres unmarked) [melibiose, Galα1-6Glu]: the “Prevention of hyperacute rejection on in vivo administration” value in data set [3] (Ye et al., 1994) is listed as “failed to prevent hyperacute rejection”. Further, the “Toxicity on in vivo administration” value in data set [3] (necessary concentrations in pig/primate xenotransplantation) is given as “cytotoxic to other tissue; also recorded: proved highly toxic”.
On to `OC[C@H]1O[C@@](CO)(O[C@H]2O[C@H](CO)[C@@H](O)[C@H](O)[C@H]2O)[C@@H](O)[C@@H]1O` [sucrose], for which, in data set [1], the “Inhibition … to immobilized mouse laminin” value is listed as “do not inhibit antibody binding”. The “Inhibition of serum IgG and IgM binding to immobilized αGal pentasaccharide glycinamide” value in data set [2] is “not inhibited”.
As to `OC[C@H]1O[C@H](O[C@H]2[C@@H](O)[C@@H](CO)OC(O)[C@@H]2O)[C@H](O)[C@@H](O)[C@H]1O` (some centres unmarked) [αGal disaccharide, Galα1-3Gal], in data set [4], the “Neutralization of anti-αGal antibody in vitro, in words” value is “effective in neutralizing the anti-αGal antibody in vitro”.
As a reminder, the clearance is the volume of plasma or blood freed of the substance per unit of time. A low value points to a low capacity for elimination. The half-life is the time in which the quantity being followed falls by half. For the compound `CC(=O)N[C@H]1C(O)O[C@H](CO)[C@@H](O[C@@H]2O[C@H](CO)[C@H](O)[C@H](O[C@H]3O[C@H](CO)[C@H](O)[C@H](O)[C@H]3O)[C@H]2O)[C@@H]1O` (some centres unmarked) [αGal trisaccharide, Galα1-3Galβ1-4GlcNAc], in data set [1], the “Inhibition … to immobilized mouse laminin” value was “slightly better inhibitor of IgG (FIG. 1A) and IgM (FIG. 1B) binding to laminin than αGal pentasaccharide”. The “Inhibition of serum cytotoxicity toward PK-15 cells” value in data set [5] is reported as “slightly better inhibitor of cytotoxicity than αGal pentasaccharide; also recorded: inhibited slightly better by the αGal trisaccharide than by the αGal pentasaccharide”. For the same compound, in data set [6] (baboon 1003), the clearance stood at 4.18 mL/min/kg, the half-life was found to be 46.8 min and the Vd turned out to be 0.288 L/kg. In data set [6] (baboon 1015), the clearance was 4.88 mL/min/kg, the half-life amounted to 51.5 min and the Vd is 0.362 L/kg. In data set [6] (setting [8]), the “Calculated continuous infusion, total amount” value (“Calculated continuous infusion” for short) is reported as 1.04 Kg/14 days; the Calculated loading dose was 3.82 g/20 Kg baboon; the “Calculated loading dose (bolus or 15 min infusion)” value is 191 mg/kg. Further, in data set [6] (setting [9]), the “Calculated continuous infusion” value was 2.08 Kg/14 days; the Calculated loading dose is listed as 7.64 g/20 Kg baboon; the “Calculated loading dose (bolus or 15 min infusion)” value is 382 mg/kg. Also, in data set [6] (setting [10]), the “Calculated continuous infusion” value is recorded as 4.15 Kg/14 days; the Calculated loading dose is given as 15.28 g/20 Kg baboon; the “Calculated loading dose (bolus or 15 min infusion)” value is 764 mg/kg. Further, the “Minimal serum (circulating) concentration required to inhibit hyperacute rejection / be efficacious in vivo” value in data set [7] was no less than 1 mM. In addition, in data set [4], the “Neutralization of anti-αGal antibody in vitro, in words” value was “effective in neutralizing the anti-αGal antibody in vitro” and the “Relative effectiveness in neutralizing anti-αGal antibody in vitro” value is listed as “ten times more effective than the αGal disaccharide”.
